Measured values as given in patent publication US6620828B2, “Thiazole compounds and pharmaceutical compositions for inhibiting protein kinases and methods for their use” (Agouron Pharmaceuticals, Inc., priority 1999, dated 2003).

Biological target: T1, FL-CHK1 (Homo sapiens, UniProt O14757)
T1 construct: C-terminally His-tagged full-length human CHK1 (FL-CHK1); 6xHis (C); made in house; host or cells: baculovirus/insect cells
T1 sequence (O14757 1-476): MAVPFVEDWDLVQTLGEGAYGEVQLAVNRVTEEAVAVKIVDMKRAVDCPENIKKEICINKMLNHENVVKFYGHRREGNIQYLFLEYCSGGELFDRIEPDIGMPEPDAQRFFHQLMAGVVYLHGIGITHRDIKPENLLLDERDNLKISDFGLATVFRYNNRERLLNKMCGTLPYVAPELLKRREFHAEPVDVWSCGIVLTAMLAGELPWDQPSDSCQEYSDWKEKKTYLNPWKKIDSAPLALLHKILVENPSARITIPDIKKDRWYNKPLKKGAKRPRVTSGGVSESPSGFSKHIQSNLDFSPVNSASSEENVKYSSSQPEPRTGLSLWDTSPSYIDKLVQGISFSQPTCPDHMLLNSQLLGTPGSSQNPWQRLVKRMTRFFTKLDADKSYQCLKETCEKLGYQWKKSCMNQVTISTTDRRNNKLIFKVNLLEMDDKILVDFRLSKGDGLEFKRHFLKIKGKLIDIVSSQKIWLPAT
Assay: CHK1 assay
Type: biochemical
Settings: 20 μM; combinatorial library compounds
Summary of the method: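 Full-length human CHK1 with C-terminal 6×His tag, made in baculovirus/insect cells, 10 nM, phosphorylating 0.125 mM Syntide-2 with 0.15 mM ATP in 50 mM Tris pH 7.5, 25 mM MgCl2, 400 mM NaCl. PK/LDH-coupled NADH oxidation read at 340 nm. Ki from initial rates over varied compound concentrations.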

Compound	CHK1 % Inhibition at 20 μM	inhibition at 20 µM
COc1ccc(-c2csc(-c3sc(Nc4ccc(S(N)(=O)=O)cc4)nc3N)n2)cc1 [drawing 425]	10.7%	–
CCc1cc2c(cc1-c1csc(-c3sc(Nc4ccc(S(N)(=O)=O)cc4)nc3N)n1)C(C)(C)CCC2(C)C	–	1.3%
CC(C)c1ccc(Nc2nc(N)c(-c3nc(-c4cc(-c5ccc(Cl)c(Cl)c5)no4)cs3)s2)cc1	–	-9%
CC(C)c1ccc(Nc2nc(N)c(-c3nc(-c4c(Cl)cc(C(F)(F)F)cc4Cl)cs3)s2)cc1	–	14.8%
CC(C)c1ccc(Nc2nc(N)c(-c3nc(-c4cc(C(=O)C(Cl)(Cl)Cl)n(C)c4)cs3)s2)cc1	–	0.7%
Nc1nc(Nc2ccc(S(N)(=O)=O)cc2)sc1-c1nc(-c2ccc(CC(=O)O)s2)cs1	–	11.3%

Results, then the compound that gave them:

CHK1 % Inhibition at 20 μM	inhibition at 20 µM	Compound
2.7%	–	COc1ccc(-c2csc(-c3sc(Nc4ccc(N(C)C)cc4)nc3N)n2)cc1 [drawing 525]
–	12.6%	CN(C)c1ccc(Nc2nc(N)c(-c3nc(-c4csc5ccccc45)cs3)s2)cc1
–	17.6%	CC(C)c1ccc(Nc2nc(N)c(-c3nc(-c4ccc[nH]4)cs3)s2)cc1
–	41.7%	CN(C)c1ccc(Nc2nc(N)c(-c3nc(-c4ccc(F)cc4)cs3)s2)cc1
–	5.2%	CN(C)c1ccc(Nc2nc(N)c(-c3nc(-c4cc(C(=O)C(Cl)(Cl)Cl)n(C)c4)cs3)s2)cc1
–	15.2%	Cc1ccc(-c2csc(-c3sc(Nc4ccc(N(C)C)cc4)nc3N)n2)cc1
4.7%	–	COc1ccc(-c2csc(-c3sc(Nc4ccc(C(C)C)cc4)nc3N)n2)cc1 [drawing 462]
–	41.1%	COc1cc(OC)c(-c2csc(-c3sc(Nc4ccc(N(C)C)cc4)nc3N)n2)c(O)c1Cl

Biological target: CDK2/Cyclin A complex (Homo sapiens, UniProt P24941)
Assay: CDK2/Cyclin A assay
Type: biochemical
Settings: 1.0 μM; combinatorial library compounds
Summary of the method: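 Radiometric assay: 150 nM CDK2/cyclin A (insect-cell CDK2, truncated cyclin A) phosphorylates His-tagged Rb fragment (residues 386-928) with 25 μM ATP plus [32P]ATP, pH 7.4 HEPES, 2% DMSO, 30 °C for 20 min. Filter-captured product counted by phosphorimager; apparent Ki from competitive or tight-binding inhibition fits.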

Compound	CDK2 % Inhibition at 1.0 μM	inhibition at 1 µM
COc1ccc(-c2csc(-c3sc(Nc4ccc(S(N)(=O)=O)cc4)nc3N)n2)cc1 [drawing 425]	54.2%	–
CCc1cc2c(cc1-c1csc(-c3sc(Nc4ccc(S(N)(=O)=O)cc4)nc3N)n1)C(C)(C)CCC2(C)C	–	14.1%
CC(C)c1ccc(Nc2nc(N)c(-c3nc(-c4cc(-c5ccc(Cl)c(Cl)c5)no4)cs3)s2)cc1	–	18.5%
CC(C)c1ccc(Nc2nc(N)c(-c3nc(-c4c(Cl)cc(C(F)(F)F)cc4Cl)cs3)s2)cc1	–	26%
CC(C)c1ccc(Nc2nc(N)c(-c3nc(-c4cc(C(=O)C(Cl)(Cl)Cl)n(C)c4)cs3)s2)cc1	–	10.1%
Nc1nc(Nc2ccc(S(N)(=O)=O)cc2)sc1-c1nc(-c2ccc(CC(=O)O)s2)cs1	–	51.6%

Other lines, results leading:

CDK2 % Inhibition at 1.0 μM	inhibition at 1 µM	Compound
6.1%	–	COc1ccc(-c2csc(-c3sc(Nc4ccc(N(C)C)cc4)nc3N)n2)cc1 [drawing 525]
–	23.5%	CN(C)c1ccc(Nc2nc(N)c(-c3nc(-c4csc5ccccc45)cs3)s2)cc1
–	19%	CC(C)c1ccc(Nc2nc(N)c(-c3nc(-c4ccc[nH]4)cs3)s2)cc1
–	34.8%	CN(C)c1ccc(Nc2nc(N)c(-c3nc(-c4ccc(F)cc4)cs3)s2)cc1
–	36.7%	CN(C)c1ccc(Nc2nc(N)c(-c3nc(-c4cc(C(=O)C(Cl)(Cl)Cl)n(C)c4)cs3)s2)cc1
–	17.7%	Cc1ccc(-c2csc(-c3sc(Nc4ccc(N(C)C)cc4)nc3N)n2)cc1
–	27.8%	COc1ccc(-c2csc(-c3sc(Nc4ccc(C(C)C)cc4)nc3N)n2)cc1 [drawing 462]
–	24.1%	COc1cc(OC)c(-c2csc(-c3sc(Nc4ccc(N(C)C)cc4)nc3N)n2)c(O)c1Cl

Biological target: T2, CDK4/Cyclin D3 complex (Homo sapiens, UniProt P11802)
T2 construct: made in house; host or cells: insect cells co-infected with baculovirus vectors
Assay: CDK4/Cyclin D assay
Type: biochemical
Settings: 1.0 μM; combinatorial library compounds
Description: CDK4/Cyclin D Construct for Assay: A complex of human CDK4 and cyclin D3, or a complex of cyclin DI and a fusion protein of human CDK4 and glutathione-S-transferase (GST-CDK4), was purified using traditional biochemical chromatographic techniques from insect cells that had been co-infected with the corresponding baculovirus expression vectors.
CDK2/Cyclin A and CDK4/Cyclin D Assays
Cyclin-dependent kinase activity was measured by quantifying the enzyme-catalyzed, time-dependent incorporation of radioactive phosphate from [^32P]ATP into a recombinant fragment of the retinoblastoma protein. Unless noted otherwise, assays were performed in 96-well plates in a total volume of 50 μL, in the presence of 10 mM HEPES (N-[2-hydroxyethyl]piperazine-N′-[2-ethanesulfonic acid]) (pH 7.4), 10 mM MgCl2, 25 μM adenosine triphosphate (ATP), 1 mg/mL ovalbumin, 5 μg/mL leupeptin, 1 mM dithiothreitol, 10 mM β-glycerophosphate, 0.1 mM sodium vanadate, 1 mM sodium fluoride, 2.5 mM ethylene glycol-bis(β-aminoethyl ether)-N,N,N′N′-tetraacetic acid (EGTA), 2% (v/v) dimethylsulfoxide, and 0.03-0.2 μCi [^32P]ATP. The substrate (0.3-0.5 μg) was purified recombinant retinoblastoma protein fragment (Rb) (residues 386-928 of the native retinoblastoma protein; 62.3 kDa, containing the majority of the phosphorylation sites found in the native 106-kDa protein, as well as a tag of six histidine residues for ease of purification). Reactions were initiated with CDK2 (150 nM CDK2/Cyclin A complex) or CDK4 (50 nM CDK4/Cyclin D3 complex), incubated at 30° C., and terminated after 20 minutes by the addition of ethylenediaminetetraacetic acid EDTA) to 250 mM. The phosphorylated substrate was then captured on a nitrocellulose membrane using a 96-well filtration manifold, and unincorporated radioactivity was removed by repeated washing with 0.85% phosphoric acid. Radioactivity was quantified by exposing the dried nitrocellulose membranes to a phosphorimager. Apparent Ki values were measured by assaying enzyme activity in the presence of different compound concentrations and subtracting the background radioactivity measured in the absence of enzyme. The kinetic parameters (kcat, Km for ATP) were measured for each enzyme under the usual assay conditions by determining the dependence of initial rates on ATP concentration. The data were fit to an equation for competitive inhibition using Kaleidagraph (Synergy Software), or were fit to an equation for competitive tight-binding inhibition using the software KineTic (BioKin, Ltd.). Measured Ki values for known inhibitors against CDK4 and CDK2 agreed with published IC50 values. The specific activity of CDK4 was the same whether complexed to full-length cyclin D3 or the truncated Cyclin D3 construct; both complexes also yielded very similar Ki values for selected inhibitors.

T2 sequence (P11802 whole entry): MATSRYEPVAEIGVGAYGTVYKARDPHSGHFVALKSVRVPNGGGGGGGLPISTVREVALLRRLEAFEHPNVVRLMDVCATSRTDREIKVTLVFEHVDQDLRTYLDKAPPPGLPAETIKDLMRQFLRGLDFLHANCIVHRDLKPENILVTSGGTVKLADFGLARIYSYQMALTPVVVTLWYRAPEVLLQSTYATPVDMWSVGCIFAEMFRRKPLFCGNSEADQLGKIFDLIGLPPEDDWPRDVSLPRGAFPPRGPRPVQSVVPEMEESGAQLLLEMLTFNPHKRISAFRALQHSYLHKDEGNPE
T2 sequence (P30281 whole entry partner): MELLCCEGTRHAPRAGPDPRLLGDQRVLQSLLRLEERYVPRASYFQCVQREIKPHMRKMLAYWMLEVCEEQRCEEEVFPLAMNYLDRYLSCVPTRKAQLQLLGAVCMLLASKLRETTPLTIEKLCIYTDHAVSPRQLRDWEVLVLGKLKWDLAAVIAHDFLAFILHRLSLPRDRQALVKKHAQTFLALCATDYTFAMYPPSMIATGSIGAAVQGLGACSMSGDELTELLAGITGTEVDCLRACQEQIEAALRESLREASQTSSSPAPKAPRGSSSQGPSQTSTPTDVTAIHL

Compound	CDK4 % Inhibition at 1.0 μM	inhibition at 1 µM
COc1ccc(-c2csc(-c3sc(Nc4ccc(S(N)(=O)=O)cc4)nc3N)n2)cc1 [drawing 425]	40.9%	–
CCc1cc2c(cc1-c1csc(-c3sc(Nc4ccc(S(N)(=O)=O)cc4)nc3N)n1)C(C)(C)CCC2(C)C	–	-3.5%
CC(C)c1ccc(Nc2nc(N)c(-c3nc(-c4cc(-c5ccc(Cl)c(Cl)c5)no4)cs3)s2)cc1	–	-26.5%
CC(C)c1ccc(Nc2nc(N)c(-c3nc(-c4c(Cl)cc(C(F)(F)F)cc4Cl)cs3)s2)cc1	–	86.2%
CC(C)c1ccc(Nc2nc(N)c(-c3nc(-c4cc(C(=O)C(Cl)(Cl)Cl)n(C)c4)cs3)s2)cc1	–	37.8%
Nc1nc(Nc2ccc(S(N)(=O)=O)cc2)sc1-c1nc(-c2ccc(CC(=O)O)s2)cs1	–	65%

The next lines start with the values.

CDK4 % Inhibition at 1.0 μM	inhibition at 1 µM	Compound
19.1%	–	COc1ccc(-c2csc(-c3sc(Nc4ccc(N(C)C)cc4)nc3N)n2)cc1 [drawing 525]
–	57.7%	CN(C)c1ccc(Nc2nc(N)c(-c3nc(-c4csc5ccccc45)cs3)s2)cc1
–	53.3%	CC(C)c1ccc(Nc2nc(N)c(-c3nc(-c4ccc[nH]4)cs3)s2)cc1
–	56%	CN(C)c1ccc(Nc2nc(N)c(-c3nc(-c4ccc(F)cc4)cs3)s2)cc1
–	45.2%	CN(C)c1ccc(Nc2nc(N)c(-c3nc(-c4cc(C(=O)C(Cl)(Cl)Cl)n(C)c4)cs3)s2)cc1
–	61.6%	Cc1ccc(-c2csc(-c3sc(Nc4ccc(N(C)C)cc4)nc3N)n2)cc1
–	60.9%	COc1ccc(-c2csc(-c3sc(Nc4ccc(C(C)C)cc4)nc3N)n2)cc1 [drawing 462]
–	69.3%	COc1cc(OC)c(-c2csc(-c3sc(Nc4ccc(N(C)C)cc4)nc3N)n2)c(O)c1Cl

Biological target: T3, phosphorylated VEGF-R2Δ50 (FLVK-P) (Homo sapiens, UniProt P35968, DEL940-989/E990V)
T3 construct: VEGF-R2Δ50 contains residues 806-939 and 990-1171; made in house; host or cells: baculovirus/insect cells
Assay: VEGF-R2 coupled spectrophotometric (FLVK-P) assay
Type: biochemical
Settings: 20 μM; combinatorial library compounds
Summary of the method: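 Baculovirus-expressed human VEGF-R2Δ50 (residues 806-939/990-1171, E990V) was autophosphorylated with 3 mM ATP, 40 mM MgCl2 for 2 h at 4° C. ADP formation was coupled via PK/LDH to NADH oxidation, read at 340 nm, with 5.1 mM poly(E4Y1), 1 mM ATP, 25 mM MgCl2, Hepes pH 7.5. Ki came from activity across compound concentrations.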

T3 sequence (P35968 with tags, fused parts or gaps DEL940-989/E990V limits assumed): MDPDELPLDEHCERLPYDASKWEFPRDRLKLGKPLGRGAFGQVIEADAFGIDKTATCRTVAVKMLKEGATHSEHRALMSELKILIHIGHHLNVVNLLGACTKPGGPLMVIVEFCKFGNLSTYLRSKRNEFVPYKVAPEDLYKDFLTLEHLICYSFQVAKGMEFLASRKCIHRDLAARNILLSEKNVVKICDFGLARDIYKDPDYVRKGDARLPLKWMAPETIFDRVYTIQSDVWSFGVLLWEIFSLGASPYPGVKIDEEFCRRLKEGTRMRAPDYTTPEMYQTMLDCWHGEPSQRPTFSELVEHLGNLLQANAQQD

Compound	VEGF % inhibition at 20 μM
COc1ccc(-c2csc(-c3sc(Nc4ccc(S(N)(=O)=O)cc4)nc3N)n2)cc1 [drawing 425]	11%

Same assay, conditions: read-out: VEGF % inhibition at 20 μM, 20 μM; combinatorial library compounds

Compound	inhibition at 20 µM
CCc1cc2c(cc1-c1csc(-c3sc(Nc4ccc(S(N)(=O)=O)cc4)nc3N)n1)C(C)(C)CCC2(C)C	-2%
CC(C)c1ccc(Nc2nc(N)c(-c3nc(-c4cc(-c5ccc(Cl)c(Cl)c5)no4)cs3)s2)cc1	-5%
CC(C)c1ccc(Nc2nc(N)c(-c3nc(-c4c(Cl)cc(C(F)(F)F)cc4Cl)cs3)s2)cc1	31%
CC(C)c1ccc(Nc2nc(N)c(-c3nc(-c4cc(C(=O)C(Cl)(Cl)Cl)n(C)c4)cs3)s2)cc1	-3%
Nc1nc(Nc2ccc(S(N)(=O)=O)cc2)sc1-c1nc(-c2ccc(CC(=O)O)s2)cs1	11%

Second part, the compound after the results:

inhibition at 20 µM	Compound
13%	COc1ccc(-c2csc(-c3sc(Nc4ccc(N(C)C)cc4)nc3N)n2)cc1 [drawing 525]
22%	CN(C)c1ccc(Nc2nc(N)c(-c3nc(-c4csc5ccccc45)cs3)s2)cc1
22%	CC(C)c1ccc(Nc2nc(N)c(-c3nc(-c4ccc[nH]4)cs3)s2)cc1
41%	CN(C)c1ccc(Nc2nc(N)c(-c3nc(-c4ccc(F)cc4)cs3)s2)cc1
3%	CN(C)c1ccc(Nc2nc(N)c(-c3nc(-c4cc(C(=O)C(Cl)(Cl)Cl)n(C)c4)cs3)s2)cc1
16%	Cc1ccc(-c2csc(-c3sc(Nc4ccc(N(C)C)cc4)nc3N)n2)cc1
19%	COc1ccc(-c2csc(-c3sc(Nc4ccc(C(C)C)cc4)nc3N)n2)cc1 [drawing 462]
36%	COc1cc(OC)c(-c2csc(-c3sc(Nc4ccc(N(C)C)cc4)nc3N)n2)c(O)c1Cl
